According to patent publication US6914045B2, “Glycopeptide antibiotics” (Wyeth Holdings Corporation, priority 2001, dated 2005):
In brackets after ≈: the same amount, converted by molar mass.

What was measured:
Assay in all cases: in vitro antibacterial evaluation, MIC by broth dilution
Assay type in all cases: cell-based
Escherichia coli = conditions: 18 hours at 35° C.
Enterococcus sp. = conditions: broth dilution, 18 hours at 35° C.
Method in brief: (§1)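 Step 1: dilute antibiotic across 64-0.06 μg/mL in Muller-Hinton II […]. Step 2: inoculate at 5×10^5 CFU/mL.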

Streptococcus sp. = conditions: broth dilution, 18 hours at 35° C.
Method in brief: as §1

Staphylococcus sp. = conditions: broth dilution, 18 hours at 35° C.
Method in brief: as §1

MIC Escherichia coli (ATCC 25922) (Escherichia coli): 64 µg/mL (≈ 54.9 µM)
MIC Escherichia coli (GC 4559) (Escherichia coli): 64 µg/mL (≈ 54.9 µM)
MIC Escherichia coli (GC 4560) (Escherichia coli): 8 µg/mL (≈ 6.86 µM)
MIC Enterococcus avium (GC 4558) (Enterococcus sp.): 8 µg/mL (≈ 6.86 µM)
MIC Enterococcus faecalis (ATCC 29212) (Enterococcus sp.): 64 µg/mL (≈ 54.9 µM)
MIC Enterococcus faecalis (GC 2242) (Enterococcus sp.): 64 µg/mL (≈ 54.9 µM)
MIC Enterococcus faecalis (GC 2691) (Enterococcus sp.): 32 µg/mL (≈ 27.5 µM)
MIC Enterococcus faecalis (GC 3059) (Enterococcus sp.): 128 µg/mL (≈ 110 µM)
MIC Enterococcus faecalis (GC 4552) (Enterococcus sp.): 128 µg/mL (≈ 110 µM)
MIC Enterococcus faecalis (GC 4553) (Enterococcus sp.): 16 µg/mL (≈ 13.7 µM)
MIC Enterococcus faecalis (GC 4554) (Enterococcus sp.): 64 µg/mL (≈ 54.9 µM)
MIC Enterococcus faecalis (GC 6189) (Enterococcus sp.): 32 µg/mL (≈ 27.5 µM)
MIC Enterococcus faecium (GC 2243) (Enterococcus sp.): 32 µg/mL (≈ 27.5 µM)
MIC Enterococcus faecium (GC 4556) (Enterococcus sp.): 32 µg/mL (≈ 27.5 µM)
MIC Enterococcus faecium (GC 4557) (Enterococcus sp.): 16 µg/mL (≈ 13.7 µM)
MIC Enterococcus faecalis (ATCC 29212) (Enterococcus sp.; strain ATCC 29212): 64 µg/mL (≈ 54.9 µM)
MIC Enterococcus faecalis (GC 2242) (Enterococcus sp.; strain GC 2242): 64 µg/mL (≈ 54.9 µM)
MIC Enterococcus faecium (GC 2243) (Enterococcus sp.; strain GC 2243): 32 µg/mL (≈ 27.5 µM)
MIC Enterococcus faecalis (GC 2691) (Enterococcus sp.; strain GC 2691): 32 µg/mL (≈ 27.5 µM)
MIC Enterococcus faecalis (GC 3059) (Enterococcus sp.; strain GC 3059): 128 µg/mL (≈ 110 µM)
MIC Enterococcus faecalis (GC 4552) (Enterococcus sp.; strain GC 4552): 128 µg/mL (≈ 110 µM)
MIC Enterococcus faecalis (GC 4553) (Enterococcus sp.; strain GC 4553): 16 µg/mL (≈ 13.7 µM)
MIC Enterococcus faecalis (GC 4554) (Enterococcus sp.; strain GC 4554): 64 µg/mL (≈ 54.9 µM)
MIC Enterococcus faecium (GC 4556) (Enterococcus sp.; strain GC 4556): 32 µg/mL (≈ 27.5 µM)
MIC Enterococcus faecium (GC 4557) (Enterococcus sp.; strain GC 4557): 16 µg/mL (≈ 13.7 µM)
MIC Enterococcus avium (GC 4558) (Enterococcus sp.; strain GC 4558): 8 µg/mL (≈ 6.86 µM)
MIC Enterococcus faecalis (GC 6189) (Enterococcus sp.; strain GC 6189): 32 µg/mL (≈ 27.5 µM)
MIC Streptococcus agalactiae (GC 4564) (Streptococcus sp.): 64 µg/mL (≈ 54.9 µM)
MIC Streptococcus pneumoniae (ATCC 6301) (Streptococcus sp.): 64 µg/mL (≈ 54.9 µM)
MIC Streptococcus pneumoniae (GC 1894) (Streptococcus sp.): 64 µg/mL (≈ 54.9 µM)
MIC Streptococcus pneumoniae (GC 4565) (Streptococcus sp.): 128 µg/mL (≈ 110 µM)
MIC Streptococcus pyogenes (GC 4563) (Streptococcus sp.): 32 µg/mL (≈ 27.5 µM)
MIC Streptococcus pneumoniae (ATCC 6301) (Streptococcus sp.; strain ATCC 6301): 64 µg/mL (≈ 54.9 µM)
MIC Streptococcus pneumoniae (GC 1894) (Streptococcus sp.; strain GC 1894): 64 µg/mL (≈ 54.9 µM)
MIC Streptococcus pyogenes (GC 4563) (Streptococcus sp.; strain GC 4563): 32 µg/mL (≈ 27.5 µM)
MIC Streptococcus agalactiae (GC 4564) (Streptococcus sp.; strain GC 4564): 64 µg/mL (≈ 54.9 µM)
MIC Streptococcus pneumoniae (GC 4565) (Streptococcus sp.; strain GC 4565): 128 µg/mL (≈ 110 µM)
MIC Coagulase Negative Staphylococcus (GC 4547) (Staphylococcus sp.): 16 µg/mL (≈ 13.7 µM)
MIC Coagulase Negative Staphylococcus (GC 4548) (Staphylococcus sp.): 32 µg/mL (≈ 27.5 µM)
MIC Coagulase Negative Staphylococcus (GC 4549) (Staphylococcus sp.): 32 µg/mL (≈ 27.5 µM)
MIC Coagulase Negative Staphylococcus (GC 4551) (Staphylococcus sp.): 32 µg/mL (≈ 27.5 µM)
MIC Coagulase Negative Staphylococcus (GC 6257) (Staphylococcus sp.): 16 µg/mL (≈ 13.7 µM)
MIC Staphylococcus aureus (ATCC 29213) (Staphylococcus sp.): 32 µg/mL (≈ 27.5 µM)
MIC Staphylococcus aureus (GC 1131) (Staphylococcus sp.): 32 µg/mL (≈ 27.5 µM)
MIC Staphylococcus aureus (GC 3051) (Staphylococcus sp.): 64 µg/mL (≈ 54.9 µM)
MIC Staphylococcus aureus (GC 3053) (Staphylococcus sp.): 64 µg/mL (≈ 54.9 µM)
MIC Staphylococcus aureus (GC 4541) (Staphylococcus sp.): 32 µg/mL (≈ 27.5 µM)
MIC Staphylococcus aureus (GC 4542) (Staphylococcus sp.): 64 µg/mL (≈ 54.9 µM)
MIC Staphylococcus aureus (GC 4544) (Staphylococcus sp.): 32 µg/mL (≈ 27.5 µM)
MIC Staphylococcus aureus (GC 4545) (Staphylococcus sp.): 32 µg/mL (≈ 27.5 µM)
MIC Staphylococcus aureus-SMITH (GC 4543) (Staphylococcus sp.): 32 µg/mL (≈ 27.5 µM)
MIC Staphylococcus aureus (ATCC 29213) (Staphylococcus sp.; strain ATCC 29213): 32 µg/mL (≈ 27.5 µM)
MIC Staphylococcus aureus (GC 1131) (Staphylococcus sp.; strain GC 1131): 32 µg/mL (≈ 27.5 µM)
MIC Staphylococcus aureus (GC 3051) (Staphylococcus sp.; strain GC 3051): 64 µg/mL (≈ 54.9 µM)
MIC Staphylococcus aureus (GC 3053) (Staphylococcus sp.; strain GC 3053): 64 µg/mL (≈ 54.9 µM)
MIC Staphylococcus aureus (GC 4541) (Staphylococcus sp.; strain GC 4541): 32 µg/mL (≈ 27.5 µM)
MIC Staphylococcus aureus (GC 4542) (Staphylococcus sp.; strain GC 4542): 64 µg/mL (≈ 54.9 µM)
MIC Staphylococcus aureus-SMITH (GC 4543) (Staphylococcus sp.; strain GC 4543): 32 µg/mL (≈ 27.5 µM)
MIC Staphylococcus aureus (GC 4544) (Staphylococcus sp.; strain GC 4544): 32 µg/mL (≈ 27.5 µM)
MIC Staphylococcus aureus (GC 4545) (Staphylococcus sp.; strain GC 4545): 32 µg/mL (≈ 27.5 µM)
MIC Coagulase Negative Staphylococcus (GC 4547) (Staphylococcus sp.; strain GC 4547): 16 µg/mL (≈ 13.7 µM)
MIC Coagulase Negative Staphylococcus (GC 4548) (Staphylococcus sp.; strain GC 4548): 32 µg/mL (≈ 27.5 µM)
MIC Coagulase Negative Staphylococcus (GC 4549) (Staphylococcus sp.; strain GC 4549): 32 µg/mL (≈ 27.5 µM)
MIC Coagulase Negative Staphylococcus (GC 4551) (Staphylococcus sp.; strain GC 4551): 32 µg/mL (≈ 27.5 µM)
MIC Coagulase Negative Staphylococcus (GC 6257) (Staphylococcus sp.; strain GC 6257): 16 µg/mL (≈ 13.7 µM)
SMILES: CC(c1ccccc1)C1NC(=O)CNC(=O)C(CO[Si](C)(C)C(C)(C)C)NC(=O)C(C(O)C2CNC(=N)N2C2OC3COC(C)(C)OC3C3OC(C)(C)OC32)NC(=O)C(C(O)C2CNC(=N)N2)NC(=O)C(Cc2ccc(O)cc2)NC1=O (stereo not shown) [Example 248]
MIC Staphylococcus haemolyticus (GC 4546) (Staphylococcus sp.): 16 µg/mL (≈ 13.7 µM)
MIC Staphylococcus haemolyticus (GC 4546) (Staphylococcus sp.; strain GC 4546): 16 µg/mL (≈ 13.7 µM)
